Experimental data reported in patent publication US6660468B1, “Vitro and in vivo models for screening compounds to prevent glucocorticoid-induced bone destruction” (Board of Trustees of the University of Arkansas, priority 1998, dated 2003).

Assays:
Male Swiss Webster mice = test: Bone densitometry (DEXA) in prednisolone-treated mice; type: in vivo, mouse; conditions: for Global BMD (% change) / Hindquarters BMD (% change) / Spinal BMD (% change): 27 days
Text: (§1) Bone mineral density (BMD) determinations were done at two week intervals to identify the peak adult bone mass of the mice, which was reached between 5 and 6 months-of-age (9). Animals at peak bone mass were used to avoid obscuring the negative impact of glucocorticoid excess on bone mineral density by the confounding effects of increased linear and radial growth. Before the experiment began, bone mineral density measurements were repeated to allocate the animals into groups (n=4-5) with equivalent spinal density values. […] These doses were administered for 27 days by subcutaneous implantation of slow-release pellets (Innovative Research of America, Sarasota, Fla.). Bone mineral density measurements were obtained at the beginning of the experiment and 27 days post-implantation. For dynamic histomorphometric measurements, tetracycline HCl (30 mg/kg body weight) was given intraperitoneally 17 and 23 days post-implantation. After 27 days, the mice were sacrificed, serum and urine specimens were taken, bone marrow aspirates were obtained from the right femur for ex vivo marrow cell cultures and the left femur and lumbar vertebrae were prepared for histomorphometric analysis. Livers were examined for fatty infiltration as a sign of prednisolone toxicity. The weight of the seminal vesicles (mg/100 g body weight) was used as an index of the androgen status of the animals (12). To help interpret these measurements, a separate group of animals was orchidectomized (n=5).
Dual-energy X-ray absorptiometry (DEXA) was used to determine global (whole body minus the head), spinal and hindquarters bone mineral density in live mice (7,9). The scans done at 27 days after pellet implantation were analyzed using the ‘Compare’ technique, in which the evaluation is based on the exact positioning and region of interest placement of the baseline scan. […] Over the 18 months, the coefficient of variation for the bone mineral density of a plastic-embedded whole mouse skeleton was 3.0% (n=146).

[1] = Food intake, body weight, seminal vesicle weight and hepatic fatty infiltration; type: in vivo, mouse; conditions: mice; for Seminal Vesicle Weight: index of androgen status
Method: Male Swiss Webster mice (Charles River Laboratories, Stone Ridge, N.Y.) were electronically tagged (Biomedic Data System Inc., Maywood, N.J.) and kept in plastic cages (3-5 animals per cage) under standard laboratory conditions with a 12 hr dark, 12 hr light cycle and a constant temperature of 20° C. and humidity of 48%. All mice were fed on a standard rodent diet (Agway RMH 3000, Arlington Heights, Ill.) containing 22% protein, 5% fat, 5% fiber, 6% ash, 3.5 Kcal/g, 1.0 IU vitamin D3/g, 0.97% calcium and 0.85% phosphorus with water ad libitum. The animals and food supply were weighed at one week intervals throughout the experiment. Studies were approved by the UAMS Division of Laboratory and Animal Medicine.
as §1

[2] = test system: murine vertebral cancellous bone; test: Vertebral cancellous bone histomorphometry after 27 days
Method: as §1, with “Animals” for “Bone mineral density (BMD) determinations were done at two week intervals to identify the peak adult bone mass of the mice, which was reached between 5 and 6 months-of-age (9). Animals”
(§2) The distal femora and lumbar vertebrae were fixed in 4° C. Millonig's phosphate-buffered 10% formalin, pH 7.4, embedded undecalcified in methyl methacrylate and stained (7,9,13). The histomorphometric examination was done with a computer and digitizer tablet (OsteoMetrics Inc. Version 3.00, Atlanta, Ga.) interfaced to a Zeiss Axioscope (Carl Zeiss, Inc., Thornwood, N.Y.) with a drawing tube attachment. All cancellous measurements were two-dimensional, confined to the secondary spongiosa and made at ×400 magnification (numerical aperture 0.75). The terminology and units used are those recommended by the Histomorphometry Nomenclature Committee of the American Society for Bone and Mineral Research (14). The trabecular width and osteoid width were measured directly. Trabecular spacing and number were calculated (15). Only TRAPase-positive cells were included in the osteoclast perimeter. The rate of bone formation (μm^2/μm/d) and turnover (%/d) were calculated (7).

[3] = test system: murine vertebral cancellous bone; type: in vivo, mouse
Method: as §2
To directly establish whether glucocorticoids initially accelerate bone resorption in the mouse, the vertebral cancellous bone histology were examined in an additional group of somewhat younger mice (5-mo-old) after 7 days administration of the higher dose of prednisolone or placebo (n=5).

[4] = higher dose (2.1 mg/kg/d), 27 days, vs placebo

SMILES: C[C@]12C=CC(=O)C=C1CC[C@@H]1[C@@H]2[C@@H](O)C[C@@]2(C)[C@H]1CC[C@]2(O)C(=O)CO [prednisolone]
- Global BMD (% change) (Male Swiss Webster mice; 0.7 mg/kg/d s.c. slow-release pellet): −5.0 ± 2.2 % change
- Hindquarters BMD (% change) (Male Swiss Webster mice; 0.7 mg/kg/d): −3.8 ± 8.0 % change
- Spinal BMD (% change) (Male Swiss Webster mice; 0.7 mg/kg/d): −6.8 ± 3.2 % change
- Effect on bone mineral density (Male Swiss Webster mice; 1.4 mg/kg/d, pilot studies): invariably causes densitometric evidence of bone loss
- Global BMD (% change) (Male Swiss Webster mice; 2.1 mg/kg/d s.c. slow-release pellet): −6.6 ± 1.9 % change
- Hindquarters BMD (% change) (Male Swiss Webster mice; 2.1 mg/kg/d): −3.4 ± 6.9 % change
- Spinal BMD (% change) (Male Swiss Webster mice; 2.1 mg/kg/d): −8.7 ± 3.5 % change
- Effect on bone mineral density (Male Swiss Webster mice; pellets releasing 0.5 mg/kg/d (the no effect dose)): did not decrease bone mineral density
- Body Weight ([1]; 0.7 mg/kg/d): 33.8 ± 4.3 g
- Food Intake ([1]; 0.7 mg/kg/d): 3.6 ± 0.2 g/day
- Seminal Vesicle Weight ([1]; 0.7 mg/kg/d): 92.7 ± 8.7 mg/100 g body weight
- Body Weight ([1]; 2.1 mg/kg/d): 32.2 ± 4.2 g
- Food Intake ([1]; 2.1 mg/kg/d): 3.7 ± 0.4 g/day
- Seminal Vesicle Weight ([1]; 2.1 mg/kg/d): 83.1 ± 6.9 mg/100 g body weight
- Hepatic fatty infiltration ([1]; sign of prednisolone toxicity, 27 days): absent
- Bone area/Tissue area ([2]; 0.7 mg/kg/d, 27 days): 6.9 ± 2.1%
- Bone area/Tissue area ([2]; 2.1 mg/kg/d, 27 days): 6.3 ± 1.7 %
- Decrease in mineralizing perimeter ([2]; 27 days): 26%
- Decline in mineral appositional rate ([2]; higher dose (2.1 mg/kg/d), 27 days): 40%
- Decline in trabecular width [2, 4]: 23%
- Decline in vertebral cancellous bone area [2, 4]: 40%
- Decrease in osteoid area ([2]; higher dose, 27 days): 29%
- Decrease in osteoid perimeter ([2]; higher dose, 27 days): 34%
- Decrease in osteoid width ([2]; higher dose, 27 days): 27%
- Decrease in rate of bone formation ([2]; higher dose, 27 days): 53%
- Decline in mineral appositional rate ([2]; lower dose (0.7 mg/kg/d), 27 days): 22%
- Active lifespan of an osteoblast ([2]; mouse, in vivo): about 260 hours
- Increase in empty erosion cavities or reversal perimeter ([2]; mouse, in vivo): 3 fold
- Wall width ([2]; mouse, in vivo): about 8 μm
- Decrease in osteoblast perimeter ([3]; higher dose, 7 days): 59%
- Increase in osteoclast perimeter ([3]; higher dose, 7 days): 96%
- Osteoblast perimeter ([3]; mouse, in vivo): 2.1±1.1%
- Osteoclast perimeter ([3]; mouse, in vivo): 1.00±0.41%
